Laboratory results reported in a melting point compilation (Tetko et al.; mined from patent text by program, amines drawn as free bases though some values may be those of a salt).

melting point | Structure (SMILES)
120 to 130 °C | c1cc(OCCCCc2nnn[nH]2)cc(OCc2ccc3ccccc3n2)c1
287 to 289 °C | CC(C)Sc1cc2c(cc1Cl)N=C(C(Cl)Cl)NS2(=O)=O
115 to 135 °C | C[C@H](NC(=O)Cc1ccccc1F)C(=O)N[C@@H]1C(=O)Nc2ccccc2O[C@@H]1c1ccccc1
89.5 °C | CSC(=CC(=O)c1cccc(C(F)(F)F)c1)SC
183 to 185 °C | O=c1c2cc(F)c(N3CCCC3)cc2n(-c2ccc(F)cc2)c(=O)n1O
102 to 104 °C | CCCc1c(OCCCCCCc2ccc3cc(OC)c(OC)cc3c2)ccc(C(=O)O)c1O
139 to 142 °C | COc1cc(N)c(Cl)cc1C(=O)NCC1CCN(CCCCCNC(=O)c2cccc(Cl)c2)CC1
68.7 to 70.9 °C | COCCCOc1ccc(CCCO)c(Oc2ncc(C(F)(F)F)cc2Cl)c1
168 to 170 °C | CC(=O)NC[C@H]1CN(c2ccc(N3CCC(n4cc(C=O)nn4)CC3)c(F)c2)C(=O)O1
203 to 205 °C | CC1(O)Nc2cc(O)c(C(C)(C)C)cc2O1 (stereo not drawn)
105 to 107 °C | Cc1c(Cl)sc2[nH]c(=O)c(-c3ccccc3)c(O)c12
96 to 96.5 °C | CCC(=O)NC1=NN(c2ccccc2)C(C)C1 (stereo not drawn)
186 to 188 °C | COc1ccc(C2(c3ccc(O)c(C)c3)c3ccccc3-c3ccccc32)cc1
159 to 160 °C | COc1cc(OC)c(C(=O)Nc2cccc3c2CCN(C)C3)cc1OC
> 300 °C | CN(C)c1ccc(-c2[nH]nc3c2C(=O)c2c(NC(=O)CN4CCOCC4)cccc2-3)cc1
128 to 129 °C | CCCc1cccc2c(C=O)cc(OC)c(O)c12
192 to 193 °C | CCC(=O)Nc1cc(-c2c(-c3cccc(Cl)c3)nc3cccnn23)ccn1

melting point | Structure (SMILES)
16 to 20 °C | C[C@H]1CCCC(C)(C)[C@@H]1C(=O)c1ccc(C(F)(F)F)cc1
290 °C | CN1Sc2ccccc2C(=O)C1C(=O)Nc1coc2ccccc2c1=O (stereo not drawn)
72 to 74 °C | CC(=O)Nc1cc(F)c(OC(F)F)cc1[N+](=O)[O-]
144 °C | CCOC(=O)c1cn2c(C)c(C)nc2c(NCc2c(C)cccc2CC)n1
58 to 60 °C | CC(C)(C)OC(=O)NC1CC1F (stereo not drawn)
127 to 129 °C | CCc1nc2c(cnn2CC)c(NC2CCOCC2)c1CNC(=O)c1cccc(C(=O)NCc2ccc(OC)c(-c3cccc(CN4CC(C)NC(C)C4)c3)c2)c1 (stereo not drawn)
175 °C | CCC(CC)(CC(=O)Nc1cccc(OCc2ccc3ccc(Br)cc3n2)c1)C(=O)O
43.5 to 45 °C | CCOC(=O)C(Oc1ccc(Cl)cc1)C(=O)OCC
199 to 201 °C | CCC1c2ccc(C)n2-c2ccc(F)cc2N1S(=O)(=O)c1ccc(O)c(C)c1 (stereo not drawn)
293 to 296 °C | CCCn1c(=O)c2[nH]c(-c3cc(C)n(CC(=O)Nc4ccc(OC)cc4)n3)nc2n(CCC)c1=O
128 to 129 °C | O[C@@H]1CNC[C@H]1Oc1cccc(Cl)c1 (relative stereo)
182 to 184 °C | CC(C)CC1=CC(c2ccccc2)C2=C(CCCC2=O)N1 (stereo not drawn)
206 °C | N=C(NO)c1ccc2c(c1)COC(N[C@@H]1CCc3ccccc31)=N2
174 to 175 °C | O=C(NC1CCN(CCC2CCCCC2)CC1)c1ccccc1
108 to 110 °C | COc1cccc(CNC(=O)[C@H]2N(C(=O)[C@@H](O)[C@@H](Cc3ccccc3)NC(=O)c3cccc(O)c3C)CSC2(C)C)c1
107 to 109 °C | COc1cc(C(C)=NNC(=N)NCc2ccccc2)cc(OC)c1OC
73 to 77 °C | O=C(O)CCCOc1cccc(CN2CCCCC2)c1

More lines, now with the values behind:

Structure (SMILES) | melting point
C=CC(=O)NC(=O)CC(C)=O | 128 to 130 °C
COC(=O)NCCc1ccc(OCC(O)CNC(C)C)nc1 (stereo not drawn) | 97 to 99 °C
O=[N+]([O-])c1ccc2nc(-c3cccs3)oc2c1 | 208 to 210 °C
O=C1NC(=Cc2ccccc2Cl)C(=O)C1=NO | 176 °C
CN1CCC(c2cc(F)ccc2F)(S(=O)(=O)c2ccc(Cl)cc2)CC1 | 172 to 175 °C
O=C(NCCCCCCO)OC1CCN(C(=O)Oc2ccc(Oc3ccccc3)cc2)CC1 | 69 to 72 °C
CCOC(=O)c1c(S)nc(-c2ccccc2)c([N+](=O)[O-])c1C(=O)OCC | 129 to 132 °C
O=C(c1cccs1)c1cccc(O)c1C(=O)O | 168 to 170 °C
Cc1cc(C)c2cccc(OCc3c(Cl)ccc(S(=O)(=O)N4CCC[C@H]4C(=O)NCc4cccc(C(N)=S)c4)c3Cl)c2n1 | 116 to 118 °C
O=C(c1ccc(I)cc1)C1(c2ccccc2F)CO1 (stereo not drawn) | 75 to 76 °C
O=C(COc1ccc(Cl)c2c(=O)c3ccccc3sc12)c1ccccc1 | 174 to 176 °C
O=C1OC(CO)CN1c1ccc2ccccc2c1 (stereo not drawn) | 174 °C
CCCCCCCCCCC[C@H](O)C[C@@H]1OC(=O)[C@H]1CCCCCC | 61 to 62 °C
CC(C)Oc1c(C(=O)O)sc2c1CSCC2 | 148 to 149 °C
COc1ccc(C(=O)CCc2cccnc2)cc1 | 76 to 78 °C
CS(=O)c1ccc(Oc2ccc(Cl)c(Cl)c2)nc1C(N)=O (stereo not drawn) | 185 to 187 °C
CN1c2ccccc2CC(=O)c2ccccc21 | 92 to 93 °C
COC(=O)COc1c(I)cc(-c2c3ccccc3cc3sc4ccccc4c23)cc1I | 203 to 205 °C
COC(=O)NC[C@H]1CN(c2ccc(-c3nc(Cn4cccn4)cs3)c(F)c2)C(=O)O1 | 142 to 144 °C
O=[N+]([O-])c1ccc(CN2CCC(c3cc(-c4ccc(Cl)cc4)[nH]n3)CC2)cc1 | 187 to 190 °C
O=C(CO/N=C/c1ccc([N+](=O)[O-])c(CO)c1)N1CCN(CC2CCCCC2)CC1 | 170 °C
Fc1cccc(COc2nnc(-c3ccc4c(c3)CCO4)o2)c1 | 91 to 92 °C

Structure (SMILES) | melting point
O=C1CCC(Cn2c(=O)[nH]c3ncc(-c4ccc(O)cc4)nc32)N1 (stereo not drawn) | 338 to 340 °C
CCCCc1nc2cccc(C(=O)O)c2n1Cc1ccc2nc(-c3ccccc3-c3nnn[nH]3)ncc2c1 | 188 to 191 °C
Cc1ncc(CCCN2C(=O)c3ccccc3C2=O)s1 | 75 °C
CC(C)(C)OC(=O)N[C@@H](CCCCNC[C@H](O)CCl)C(=O)OC(C)(C)C | 87 to 88 °C
CC#CCOc1ccc(S(=O)(=O)NC(C(=O)NO)c2ccc(OCCN3CCCC3)cc2)cc1 (stereo not drawn) | 70 °C
O/N=C(/c1ccc(Cl)cc1)C1CC1 | 101 to 103 °C
CCCCC(=O)CC1c2ccccc2C(=O)N1c1ccc2ccc(OC)nc2n1 (stereo not drawn) | 161 °C
Cc1ccc2c(c1)CCN1C2CC(=O)C2CCCCC21 (stereo not drawn) | 101 to 121 °C
Cn1nc(C2CCCC2)cc1N | 149 to 150 °C
ClCc1cc(-c2ccccc2)nc2ccccc12 | 79 °C
Cc1coc(NC(=S)Nc2ccc(Cl)cc2C)n1 | 214 °C
c1ccc2c(c1)CNc1ccccc1O2 | 74 to 76 °C
COc1ccc(N(S(=O)(=O)c2ccc(C)cc2)S(=O)(=O)c2ccc(C)cc2)c([N+](=O)[O-])c1 | 180 to 182 °C
CN(C)CCc1cccc2ccc(CS(=O)(=O)N3CCOCC3)cc12 | 114 to 117 °C
C[C@@H](N[C@@H](Cc1c[nH]c2ccccc12)C(=O)O)[C@H](NC(=O)[C@@H](N)CC(N)=O)C(=O)O | 65 to 70 °C
CNC(=S)C1=C(O)C(C)(C)Oc2ccc([N+](=O)[O-])cc21 | 148 to 149 °C
CN(C)CC(C)(C)C(NC(=O)c1ccc(Cl)cc1)NC(=NC#N)Nc1cccnc1 (stereo not drawn) | 101 to 103 °C
NCC1Cc2cc(-c3ccccc3)cc(-c3ccc(F)cc3)c2O1 (stereo not drawn) | > 250 °C
COC(=O)C(C)(C)c1cn2nc(Cl)c(C)cc2n1 | 98 to 99 °C
Oc1cnccc1CCCOc1cccnc1Oc1ccccc1 | 163 to 165 °C
COc1ccc2c(c1)CCNC(=O)C2 | 152 to 154 °C
CCCCCC1=NN(C(=O)NC2C3CC4CC(C3)CC2C4)CC1c1ccccc1 (stereo not drawn) | 71 °C

Structure (SMILES) | melting point
CCn1c(=O)c2c(nc(/C=C/c3ccc4c(c3)OCO4)n2C)n(CC)c1=O | 219 to 220 °C
COc1ccc(COC(=O)C2=C(C3CCCO3)OC[C@@H]3[C@H](NC(c4ccccc4)(c4ccccc4)c4ccccc4)C(=O)N23)cc1 (stereo partly drawn) | 129 to 131 °C
O=C(CCCCC(=O)NCC1Cc2c1ccc(OCc1ccccc1)c2OCc1ccccc1)NCCc1ccccc1 (stereo not drawn) | 152 to 155 °C
COc1cc2c(cc1OC)CCCC(C(=O)O)=C2 | 158 to 159 °C
Cc1ccc(S(=O)(=O)N2CCN(S(=O)(=O)c3ccc(C)cc3)CC(=O)NCC(C3CCCCC3)NC(=O)CN(S(=O)(=O)c3ccc(C)cc3)CC2)cc1 (stereo not drawn) | 224 °C
CC(C)[C@@H](CNC(=O)/C=C/c1ccccc1)NC(=O)OC(C)(C)C | 149 to 151 °C
O=C(Nc1cc(N2CCNCC2)cc(C(F)(F)F)c1)c1cccc2cc(Oc3ccnc(NC(=O)C4CC4)c3)ccc12 | 244 to 247 °C
Cc1c(Cl)c(Oc2ncc(C(F)(F)F)cc2Cl)nn1C(=O)NCCCl | 112 to 114 °C
CC(=O)Nc1c(SC(F)(F)F)c(C#N)nn1-c1c(Cl)cc(C(F)(F)F)cc1Cl | 217 to 218 °C
COC(OC)C(=O)NC1CCN(C[C@@]23C[C@@H](c4ccccc42)c2ccc(Cl)cc23)CC1 | 188 to 189 °C
CC(=O)Nc1ccc(-c2c(Cl)c(CN3C(=O)CCC3=O)nc3sc4c(c23)CCNC4)cc1 | 300 °C
Cn1cc(C2=C(c3cn(CCCN=[N+]=[N-])c4ccccc34)C(=O)NC2=O)c2ccccc21 | 222 to 224 °C
O=C1c2ccccc2C(=O)N1CCc1cn(C2OCC(O)C(O)C2O)c(=O)[nH]c1=O (stereo not drawn) | 137 °C
CC12C=CC(=O)C=C1CCC1C2C(O)CC2(C)C(C(=O)CO)=CCC12 (stereo not drawn) | 213 to 215 °C
Cc1ccc(Cl)cc1-c1cccc2c1OC(CN)C2 (stereo not drawn) | 146 to 150 °C
COc1ccc(S(=O)(=O)n2c(Cl)nc3c2c(=O)n(CC2CC2)c(=O)n3CC2CC2)cc1 | 118 °C
CS(=O)(=O)c1ccc(-c2cc(CCCO)nn2CC2CCCCC2)cc1 | 94 to 95 °C
Cc1cc(C)cc(S(=O)(=O)c2nnc(C(F)(F)F)s2)c1 | 110 °C
O=c1nc(-c2cccc(Cl)c2)c2cc(C(c3ccc(Cl)cc3)n3ccnc3)ccc2n1Cc1ccncc1 (stereo not drawn) | 61.4 °C
C[C@H](NC(=O)CCC1CCC(=O)N1)C(=O)O (stereo partly drawn) | 174 to 179 °C
